This note sets out measurements from publication PMC8316815, “Overexpression of ABCG2 Confers Resistance to MLN7243, a Ubiquitin-Activating Enzyme (UAE) Inhibitor” (Frontiers in Cell and Developmental Biology, 2021).

Series [1] has as its target T1, ABCG2 (Homo sapiens, UniProt Q9UNQ0).
T1 sequence (Q9UNQ0 1-655): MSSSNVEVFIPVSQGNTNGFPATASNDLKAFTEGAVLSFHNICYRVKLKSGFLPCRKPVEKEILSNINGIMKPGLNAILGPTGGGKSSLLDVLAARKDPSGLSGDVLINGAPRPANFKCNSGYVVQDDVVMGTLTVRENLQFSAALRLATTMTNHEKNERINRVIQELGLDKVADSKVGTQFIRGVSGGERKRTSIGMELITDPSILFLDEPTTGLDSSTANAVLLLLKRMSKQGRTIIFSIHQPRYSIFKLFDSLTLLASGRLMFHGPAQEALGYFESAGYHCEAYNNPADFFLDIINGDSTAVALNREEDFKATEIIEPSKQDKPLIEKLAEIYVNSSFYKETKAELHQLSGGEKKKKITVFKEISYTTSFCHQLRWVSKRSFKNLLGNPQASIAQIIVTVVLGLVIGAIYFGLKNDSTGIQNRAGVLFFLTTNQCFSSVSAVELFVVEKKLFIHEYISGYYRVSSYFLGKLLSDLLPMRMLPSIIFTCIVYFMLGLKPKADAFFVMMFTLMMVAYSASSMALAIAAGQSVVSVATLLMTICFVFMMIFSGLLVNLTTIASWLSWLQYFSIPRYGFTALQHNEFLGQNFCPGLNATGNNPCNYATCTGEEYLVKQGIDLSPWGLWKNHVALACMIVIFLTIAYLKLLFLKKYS
Put plainly: ABCG2 ATPase stimulation in membrane vesicles; supported by HPLC accumulation in HEK293/ABCG2-WT cells. It counts as biochemical. The arrangement: ABCG2 membrane vesicles (PREDEASY ATPase Kit).

In series [2] the target is T1, ABCG2. The series is described as follows: [3H]-mitoxantrone accumulation in NCI-H460 and NCI-H460/TPT10 cells, restored by Ko143. The arrangement: ABCG2-overexpressing NCI-H460/TPT10 cells. It counts as cell-based.

One may read the EC50 as the midpoint of the concentration-response curve. Low values mean a more potent agent, high ones a less potent agent.

`NS(=O)(=O)OC[C@H]1C[C@@H](Nc2ccnc3cc(-c4cccc(SC(F)(F)F)c4)nn23)[C@H](O)[C@@H]1O` [MLN7243]: the midpoint of the response in series [1], the EC50, lay at 1.78 µM.

Take `O=C1c2c(O)ccc(O)c2C(=O)c2c(NCCNCCO)ccc(NCCNCCO)c21` [mitoxantrone]: the “[3H]-mitoxantrone accumulation in NCI-H460 and NCI-H460/TPT10 cells, restored by” value in series [2] is recorded as “suggesting a large portion of mitoxantrone was pumped out from the cells by ABCG2 transporter”.
